Measurements from patent publication US8389509B2, “Substituted pyrazole compounds” (Bristol-Myers Squibb Company, priority 2009, dated 2013).

What was measured:
Lewis rats = assay: Rat Adjuvant Induced Arthritis Assay (AA); assay type: in vivo; conditions: for Paw Swelling (mL) on Day 20, Mean: vehicle mean 2.11
Procedure: Rat Adjuvant Induced Arthritis Assay (AA)
Male Lewis rats (150-175 g; Harlan, n=8 treatment group) were immunized at the base of the tail with 100 μl of 10 mg/ml freshly ground Mycobacterium butyricum (Difco Laboratories) in incomplete Freund's adjuvant (sigma). Animals were dosed once daily with the test article (as a solution or suspension in the vehicle) or vehicle alone (polyethylene glycol 300, “PEG300”) starting from the day of immunization. The volumes of their hind paws were measured in a water displacement plethysmometer (Ugo Basile, Italy). The baseline paw measurements were taken before onset of the disease (between day 7 to day 10). The paw measurements were then taken three times a week until the end of the study on day 20 to 21. All procedures involving animals were reviewed and approved by the Institutional Animal Care Use Committee.
Compounds of the present invention were tested in the Rat Adjuvant Induced Arthritis assay described hereinabove and the results are shown in Table F and Table G.

C57BL/6 mice = assay: Mouse Experimental Autoimmune Encephalomyelitis Assay (EAE); assay type: in vivo; conditions: for Clinical Score on Day 24, Mean: vehicle mean 2.63
Procedure: Mouse Experimental Autoimmune Encephalomyelitis Assay (EAE)
Mice (C57BL/6 female, 6-8 weeks of age, Charles River, n=10-12 treatment group) were immunized subcutaneously with 150 μg MOG35-55 emulsified 1:1 with […] Freund's adjuvant (sigma) supplemented with 150 μg Mycobacterium tuberculosis H37RA (Difco Laboratories). 400 ng of pertussis toxin (CalBiochem) was injected intraperitoneally on the day of immunization and two days later. Animals were dosed once daily with the test article (as a solution or suspension in the vehicle) or vehicle alone (polyethylene glycol 300, “PEG300”) starting from 1 day after immunization. Clinical scoring and body weight were taken 3 times per week until the end of the study on day 24. Clinical scoring system: 0.5: partial tail weakness; 1: limp tail or waddling gait with tail tonicity; 1.5: waddling gait with partial tail weakness; 2: waddling gait with limp tail (ataxia); 2.5: ataxia with partial limb paralysis; 3: full paralysis of one limb; 3.5: full paralysis of one limbs with partial paralysis of a second limb; 4: full paralysis of two limbs; 4.5: moribund; 5: death. A compound of the present invention was tested in the Mouse Experimental Autoimmune Encephalomyelitis assay described hereinabove and the results are shown in Table H.

S1P1 [1] = target: T1, S1P1 (Homo sapiens, UniProt P21453); assay: Method B: Receptor [35S] GTPγS SPA Binding Assay, S1P1; assay type: biochemical
T1 construct: expressed in transfected cells; host or cells: CHO cells
Procedure: Method B: Receptor [^35S] GTPγS SPA Binding Assays
Membranes prepared from S1P1 or S1P3 transfected CHO cells (2 μg protein) were incubated in 96-well white plates (CORNING® 3693) with test compounds diluted in DMSO, in 50 μl of reaction mixture containing 7.5 μA WGA-PVT beads (20 mg/ml), and 5 μM GDP, 20 mM HEPES pH 7.4, 100 mM NaCl, 1 mM EDTA, 5 mM MgCl2, 10 μg/ml saponin, 0.1% BSA, and 1 μM leupeptin. The assay was initiated with the addition of […] of 0.2 nM [^35S]-GTPγS (1250 Ci/mmol; NEN) in assay buffer. After 90 min incubation at room temperature, spin the plate at 1000 rpm for 5 min. The bound radionuclides were measured at TOPCOUNT®, expressed as % response relative to S1P (1 μM) activation. Data was analyzed using the four parameter logistic equation in Excel. The four parameters in the equation, Y=A+((B−A)/(1+((EC50/X)^D))), are described as following: A is the Y value (agonist activity) at the bottom plateau; B is the Y value at the top plateau; EC50 is the X value (agonist concentration) when the response is halfway between bottom and top; D is Hill coefficient. Curves were not generated for compounds having Ymax values were below 50%.
(§1) Compounds of the present invention and Comparative Compound A were tested in the Receptor [^35S] GTPγS Binding Assays (Method A) and Receptor [^35S] In some instances, the value is an average of multiple experiments where N is the number of experiments conducted that provided satisfactory dose response curves. When more than one batch of an example was tested, the value presented is from a batch which allowed a comparison of GTPγS S1P1 and GTPγS S1P3 in which the most number of experiments were performed. Preferably, the same batch was examined in Method A and Method B. Data was not averaged across different batches of an example compound.

S1P1 [2] = target: T1, S1P1; assay: Method A: Receptor [35S] GTPγS Binding Assay, S1P1; assay type: biochemical
Procedure: Method A: Receptor [35S] GTPγS Binding Assays
Compounds were loaded in a 384 FALCON® v-bottom plate (0.5 μl/well in a 3-fold dilution). Membranes prepared from S1P1/CHO cells or EDG3-Gal5-bla HEK293T cells were added to the compound plate (40 μl/well, final protein 3 μg/well) with MULTIDROP®. [^35S]GTP (1250 Ci/mmol, Perkin Elmer) was diluted in assay buffer: 20 mM HEPES, pH7.5, 10 mM MgCl2, 150 mM NaCl, 1 mM EGTA, 1 mM DTT, 10 μM GDP, 0.1% fatty acid free BSA, and 10 μg/ml Saponin to 0.4 nM. 40 μl of the [^35S] GTP solution was added to the compound plate with a final concentration of 0.2 nM. The reaction was kept at room temperature for 45 min. At the end of incubation, all the mixtures in the compound plate were transferred to a 384 well FB filter plates via GPCR robot system. The filter plate was washed with water 4 times by using the modified manifold Embla plate washer and dried at 60° C. for 45 min. 30 μA of MicroScint 20 scintillation fluid was added to each well for counting at Packard TOPCOUNT®. EC50 is defined as the agonist concentration that corresponds to 50% of the Ymax (maximal response) obtained for each individual compound tested.
as §1

T1 sequence (P21453 whole entry): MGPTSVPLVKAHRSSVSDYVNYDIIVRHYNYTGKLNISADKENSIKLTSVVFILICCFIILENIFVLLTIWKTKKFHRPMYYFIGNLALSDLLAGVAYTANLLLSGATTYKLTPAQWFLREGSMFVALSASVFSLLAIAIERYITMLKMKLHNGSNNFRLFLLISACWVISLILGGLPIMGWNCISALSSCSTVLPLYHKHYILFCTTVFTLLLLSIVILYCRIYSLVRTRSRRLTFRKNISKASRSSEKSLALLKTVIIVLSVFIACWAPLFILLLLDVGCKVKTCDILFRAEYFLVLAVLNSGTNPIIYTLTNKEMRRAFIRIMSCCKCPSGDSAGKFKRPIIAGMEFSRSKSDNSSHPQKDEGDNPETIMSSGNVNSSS

- EC50 (S1P1 [1]; Method B (SPA), S1P1 transfected CHO cell membranes): 0.5 nM
- GTPγS S1P3/S1P1 (Method B) (S1P1 [1]; ratio of S1P3 EC50 to S1P1 EC50, Method B): 8,800
- EC50 (S1P1 [2]; Method A, S1P1/CHO cell membranes): 2.9 nM
- GTPγS S1P3/S1P1 (Method A) (S1P1 [2]; ratio of S1P3 EC50 to S1P1 EC50, Method A): 2,300
SMILES: O=C(O)C1CN(Cc2ccc(-c3noc(-c4cnn(-c5ccccn5)c4C(F)(F)F)n3)cc2)C1 [Example 1, 1-(4-(5-(1-(Pyridin-2-yl)-5-(trifluoromethyl)-1H-pyrazol-4-yl)-1,2,4-oxadiazol-3-yl)benzyl)azetidine-3-carboxylic acid]
- Paw Swelling (mL) on Day 20, Mean (Lewis rats; 1.0 mg/kg once daily): 2.36 mL
- Paw Swelling (mL) on Day 20, Mean (Lewis rats; 3.0 mg/kg once daily): 1.45 mL
- Paw Swelling (mL) on Day 20, Mean (Lewis rats; 6.0 mg/kg once daily): 0.17 mL
- Paw Swelling (mL) on Day 20, Mean (Lewis rats; 10.0 mg/kg once daily): 0.12 mL
- disease progression as measured by paw swelling (Lewis rats; Lewis rat, prophylactic oral dosing): inhibit disease progression
- Clinical Score on Day 24, Mean (C57BL/6 mice; 1.0 mg/kg once daily): 0.32
- Clinical Score on Day 24, Mean (C57BL/6 mice; 3.0 mg/kg once daily): 0.77
- Clinical Score on Day 24, Mean (C57BL/6 mice; 10.0 mg/kg once daily): 0.30
- disease progression as determined by the clinical scores (C57BL/6 mice; C57Bl/6 mice, prophylactic oral dosing): inhibits disease progression
